# Results published in US20190290671A1, “HYPOLIPIDEMIC EFFECTS OF COMPOSITIONS COMPRISING BETA-GLUCOGALLIN” (priority 2018, published 2019).
# Test: body weight of high fat diet fed rats
# Assay type: in vivo, Albino Rat (Wistar)
# Details: HFD + 3 mg/kgbw
# Experimental: Performance of the Test • Feed: The animals were fed with Normal diet (9 kcal/day) and High fat diet (50 kcal/day) throughout the acclimatization and experimental period. The normal diet and High Fat diet were prepared as follows.
# Body weight of the animals was recorded in 0th, 15th, 25th, 40th, 60th and 84th day of experimental period. At 0th day, 1 ml Tail blood was collected from each animal of all the groups and serum was separated. At the end of the experimental period (84th day), the animals were sacrificed by cervical dislocation. Blood was collected and serum was separated by centrifugation and used for the analysis of biochemical parameters.
# The test item was administered through oral route by gavage.
# Experimental Methods • Measurement of Body weight • Estimation of Cholesterol (CHOD/POD Method) • Estimation of Triglycerides (GPO/POD Method) • Estimation of HDL Cholesterol (HDL Cholesterol Direct Reagent Kit, Beacon) • Determination of LDL Cholesterol (LDL Cholesterol Direct Reagent Kit, Beacon)
smiles,measurement,setting,value
"CC(C)c1c(C(=O)Nc2ccccc2)c(-c2ccccc2)c(-c2ccc(F)cc2)n1CC[C@@H](O)C[C@@H](O)CC(=O)O [STATIN, Atrovastin]",Mean Body Weight,0th Day,108.33 ± 6.83 g
same,Mean Body Weight,15th Day,127.50 ± 6.90 g
same,Mean Body Weight,25th Day,139.16 ± 5.84 g
same,Mean Body Weight,40th Day,155.83 ± 7.35 g
same,Mean Body Weight,60th Day,165.83 ± 9.70 g
same,Mean Body Weight,84th Day,172.50 ± 9.35 g
